Test: Apparent binding affinity for Alanine racemase from Pseudomonas aeruginosa

NC(CCl)P(=O)(O)O (configuration not stated) [(1-Amino-2-chloro-ethyl)-phosphonic acid]
Ki: 820 µM

NC(C(Cl)Cl)P(=O)(O)O (configuration not stated) [(1-Amino-2,2-dichloro-ethyl)-phosphonic acid]
Ki: 2000 µM

Source: BindingDB's records for doi:10.1021/jm00151a024 (1986)
